Source: article PMC9847973, “Characterizing inhibitors of human AP endonuclease 1” (PLOS ONE, 2023)
Read-outs that look alike come from different tables or passages of the source.

Experiments:
[1] = Dynamic light scattering (DLS) of compound aggregation; assay type: physicochemical; settings: for effect of detergent on aggregation: 0.05% Brij 35; for concentration at which colloidal aggregates form: 20°C; for effect of centrifugation on aggregates: detergent-free buffer, centrifugation (60 min, 16000g)
Procedure: Dynamic light scattering (DLS) experiments were performed to monitor compound aggregation, using a SpectroLight 610 instrument (Xtal Concepts, Hamburg). The instrument features a laser diode (λ 658 nm) which was set to a power of 100 mW and a scattering angle of 150°. For each sample, five replicates of 60 sec duration were collected at 20°C. Instrument settings, including integration time, were held constant for all experiments. Samples (1 ul) were prepared under mineral oil in 96 well SBS plates. Samples included the same buffer used for enzyme activity assays, with or without Brij 35 (and in all cases without BSA). The compounds were introduced from 100x stocks prepared in DMSO, giving a final DMSO concentration of 1%; samples without compound contained 1% DMSO. The DLS studies were in some cases performed using compound stocks that had been stored at –20°C in DMSO.

apo APE1^ΔN38 = target: T1, apo APE1^ΔN38 (Homo sapiens, UniProt P27695); assay: NMR chemical shift perturbation (15N-TROSY), apo APE1; assay type: binding; settings: for number of residues with substantial CSPs (Δδ ≥ 0.015 ppm) / sum of CSPs (ΣΔδ) for all assigned APE1 residues / number of residues with relatively strong CSPs (Δδ ≥ 0.03 ppm): apo APE1^ΔN38 0.15 mM, compound 1 mM
T1 construct: Human APE1 lacking the 38 N-terminal residues (APE1^ΔN38); poly-His (N, cleaved yes); made in house; host or cells: E. coli

APE1 = settings: cited from earlier work
[2] = target: T2, Human APE1 lacking the 38 N-terminal residues (APE1^ΔN38) (Homo sapiens, UniProt P27695); assay: APE1 endonuclease activity assay (HPLC, fraction activity); assay type: biochemical
T2 construct: Human APE1 lacking the 38 N-terminal residues (APE1^ΔN38); poly-His (N, cleaved yes); made in house; host or cells: E. coli

Mg^2+-bound APE1 = target: T3, Mg^2+-bound APE1 (Homo sapiens, UniProt P27695); assay: NMR chemical shift perturbation (15N-TROSY), Mg2+-bound APE1; assay type: binding; settings: MgCl2 0.25 mM or 1.0 mM
T3 construct: Human APE1 lacking the 38 N-terminal residues (APE1^ΔN38); poly-His (N, cleaved yes); made in house; host or cells: E. coli
Procedure: NMR samples (0.55 mL) contained uniformly ^15N-labeled APE1^ΔN38 (0.05 mM to 0.15 mM) in 0.02 M sodium phosphate pH 6.5, 0.1 M NaCl, 0.5 mM DTT, 0.2 mM EDTA, 10% D2O. The compounds were dissolved at 100x concentration in deuterated DMSO (DMSO-D6) and were added to the NMR samples at 1% (v/v) to give the desired compound concentration (and 1% DMSO-D6). Control samples contained APE1 with 1% DMSO-D6. […] NMR data were processed with NMRPipe, and analyzed using NMRFAM-Sparky. The chemical shift perturbation (Δδ) for backbone ^1H-^15N resonances (combined) was calculated (by NMRFAM-Sparky) using Eq 2, Δδ=ΔδH^2+ΔδN/5^2^1/2 (2) where ΔδH and ΔδN are the perturbations for ^1H and ^15N resonances, respectively.
Given the findings above, we sought to investigate whether compounds 6 or 7 might bind to the Mg^2+-bound form of APE1. […] Crystal structures of Mg^2+-bound APE1 have been determined, using crystals grown from a sample of APE1 with 1.0 mM MgCl2, a concentration that is sufficient to fully populate the metal-binding site with Mg^2+ [52, 73]. […]

[3] = Precipitation of compound in NMR samples; assay type: physicochemical; settings: NMR buffer pH 6.5
Procedure: The NMR sample contained 0.03 mM compound 7 and 0.05 mM APE1, giving a molar ratio of 0.6. […] To minimize precipitation of 7, the NMR samples (including DMSO control) contained detergent (0.05% Brij 35) at the same concentration used for the activity assays. […] Thus, the NMR CSP studies provide no evidence that compound 7 binds specifically to apo-APE1. […] In particular, the population of AP-DNA bound was reduced from 100% (absence of 7) to about 30% and 5% in the presence of 7 at a concentration of 0.01 mM and 0.03 mM, respectively, indicating 7 binds with a Kd <0.01 mM to either APE1 or to AP-DNA.

[4] = test system: enzyme-substrate (ES) complex involving APE1 (28 nM) and AP-DNA (10 nM); design: method as in PMID 22455312; settings: cited from earlier work; for population of AP-DNA bound: 100% in its absence
[5] = detergent-free assay buffer, 1% DMSO
[6] = no detergent or BSA, 37°C, read-out: IC50 for APE1 inhibition (prior findings)
[7] = read-out: IC50 for APE1 inhibition (reported)
[8] = 0.05% Brij 35, 0.1 mg/ml BSA, 80 nM DNA substrate, 23°C, 1% DMSO, read-out: IC50 for APE1 inhibition

T2 sequence (P27695 39-318): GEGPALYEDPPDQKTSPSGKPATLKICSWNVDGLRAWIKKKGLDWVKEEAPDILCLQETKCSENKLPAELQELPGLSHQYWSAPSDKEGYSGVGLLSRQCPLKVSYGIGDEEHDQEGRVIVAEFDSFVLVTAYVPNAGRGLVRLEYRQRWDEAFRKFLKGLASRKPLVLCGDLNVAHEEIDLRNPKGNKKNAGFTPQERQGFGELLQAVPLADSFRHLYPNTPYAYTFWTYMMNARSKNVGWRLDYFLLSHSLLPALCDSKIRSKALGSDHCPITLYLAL
T1 sequence (P27695 39-318): as above
T3 sequence (P27695 39-318): as above

O=C(O)c1cc2cccc([N+](=O)[O-])c2[nH]1 [Compound 1, 7-nitroindole-2-carboxylic acid]
effect of detergent on aggregation [1]: disrupted by detergent | concentration at which colloidal aggregates form [1, 5]: 2000 µM | effect of centrifugation on aggregates [1]: pelleted out of solution by centrifugation | number of residues with substantial CSPs (Δδ ≥ 0.015 ppm) (apo APE1^ΔN38): 14 | sum of CSPs (ΣΔδ) for all assigned APE1 residues (apo APE1^ΔN38): 1.19 | IC50 (APE1; [6]): ≤ 10 µM | IC50 (APE1; [7]): 3 µM

O=C(O)c1cc2cc(F)ccc2[nH]1 [Compound 2, 5-fluoroindole-2-carboxylic acid]
effect of detergent on aggregation [1]: disrupted by detergent | concentrations at which the compound is free of aggregates [1, 5]: below 3 mM | concentration at which colloidal aggregates form [1, 5]: 10000 µM | effect of centrifugation on aggregates [1]: pelleted by centrifugation | number of residues with substantial CSPs (Δδ ≥ 0.015 ppm) (apo APE1^ΔN38): ten | sum of CSPs (ΣΔδ) for all assigned APE1 residues (apo APE1^ΔN38): 1.31 | IC50 (APE1; [6]): ≤ 10 µM | IC50 (APE1; [7]): 10 µM

O=C(O)c1cc2cc([N+](=O)[O-])ccc2[nH]1 [Compound 3, 5-nitroindole-2-carboxylic acid]
effect of detergent on aggregation [1]: disrupted by detergent | effect of centrifugation on aggregates [1]: pelleted by centrifugation | number of residues with relatively strong CSPs (Δδ ≥ 0.03 ppm) (apo APE1^ΔN38): 14 | number of residues with substantial CSPs (Δδ ≥ 0.015 ppm) (apo APE1^ΔN38): 20 | sum of CSPs (ΣΔδ) for all assigned APE1 residues (apo APE1^ΔN38): 2.47

O=C(O)c1cc2ccc(Br)cc2[nH]1 [Compound 4, 6-bromoindole-2-carboxylic acid]
effect of detergent on aggregation [1]: disrupted by detergent | concentration at which colloidal aggregates form [1, 5]: ≥ 1000 µM | effect of centrifugation on aggregates [1]: pelleted by centrifugation | number of residues with relatively strong CSPs (Δδ ≥ 0.03 ppm) (apo APE1^ΔN38): eight | number of residues with substantial CSPs (Δδ ≥ 0.015 ppm) (apo APE1^ΔN38): 22 | sum of CSPs (ΣΔδ) for all assigned APE1 residues (apo APE1^ΔN38): 2.54

O=c1c(O)c(-c2cc(O)c(O)c(O)c2)oc2cc(O)cc(O)c12 [Compound 5, myricetin]
inhibition of APE1 ([2]; 0.33 mM compound, with detergent (0.05% Brij 35) and BSA): weak inhibition | effect of detergent on aggregation [1]: disrupted by detergent | concentration at which colloidal aggregates form [1, 5]: ≥ 330 µM | effect of centrifugation on aggregates [1]: pelleted by centrifugation | IC50 (APE1; read-out: IC50 for APE1 inhibition (previous finding)): 0.3 µM

Cc1cc(C)c2c(N)c3cccc(C)c3nc2n1 [Compound 6]
slope factor of the dependence of FA on compound concentration ([2]; 0.05% Brij 35, 0.1 mg/ml BSA): 1.5 ± 0.2 | IC50 [2, 8]: 3.1 ± 0.3 µM | IC50 ([2]; as restated in the NMR section, read-out: IC50 observed here): 3 µM | residues exhibiting Δδ >0.015 ppm (apo APE1^ΔN38; 0.10 mM apo APE1, 0.30 mM compound): no residues | CSPs (Δδ >0.015 ppm) for any residue of Mg2+-bound APE1 (Mg^2+-bound APE1; compound 0.30 mM, APE1 0.10 mM): does not induce CSPs | IC50 (APE1; read-out: IC50 for APE1 inhibition in vitro (previous finding)): 2 µM

CC(=O)Nc1sc2c(c1-c1nc3ccccc3s1)CCN(C(C)C)C2 [Compound 7, N-(3-(benzo[d]-thiazol-2-yl)-6-isopropyl-4,5,6,7-tetrahydrothieno[2,3-c]-pyridin-2-yl)acetamide]
slope factor of the dependence of FA on compound concentration ([2]; 0.05% Brij 35, 0.1 mg/ml BSA): 1.2 ± 0.1 | IC50 [2, 8]: 8.1 ± 0.6 µM | residues exhibiting Δδ >0.015 ppm (apo APE1^ΔN38; 0.05 mM apo APE1, 0.03 mM compound, 0.05% Brij 35): two | Kd (apo APE1^ΔN38; inferred from the absence of a detectible interaction, apo-APE1 0.05 mM, compound 0.03 mM, read-out: Kd for binding to apo-APE1): > 30 µM | CSPs (Δδ >0.015 ppm) for any backbone residue of Mg2+-bound APE1 (Mg^2+-bound APE1; compound 0.030 mM, APE1 0.05 mM, 0.05% Brij 35): fails to induce CSPs | concentration at which the compound precipitates in NMR samples [3]: ≥ 90 µM | population of AP-DNA bound ([4]; compound 0.01 mM): about 30% | population of AP-DNA bound ([4]; compound 0.03 mM): ~ 5% | Kd ([4]; inferred from the previous EMSA results, read-out: Kd for binding to either APE1 or AP-DNA): < 10 µM
